Entries after “also recorded” stand apart in the source; their conditions may differ.
Legend:
5-HT1A receptor = molecular target: T1, 5-HT1A receptor (Homo sapiens, UniProt P08908); assay: cAMP-Glo assay of 5-HT1A receptor modulation, +5-HT1A (CHO-K1/5-HT1A/Ga15) vs -5-HT1A (CHO-K1/Ga15) cells; format: cell-based; set-up: dose or concentration left out as unconfirmed; conditions: +5-HT1A vs -5-HT1A cell cultures stimulated with forskolin, increasing ligand concentrations
T1 construct: host or cells: CHO-K1 (co-expressing Ga15)
T1 sequence (P08908 1-422): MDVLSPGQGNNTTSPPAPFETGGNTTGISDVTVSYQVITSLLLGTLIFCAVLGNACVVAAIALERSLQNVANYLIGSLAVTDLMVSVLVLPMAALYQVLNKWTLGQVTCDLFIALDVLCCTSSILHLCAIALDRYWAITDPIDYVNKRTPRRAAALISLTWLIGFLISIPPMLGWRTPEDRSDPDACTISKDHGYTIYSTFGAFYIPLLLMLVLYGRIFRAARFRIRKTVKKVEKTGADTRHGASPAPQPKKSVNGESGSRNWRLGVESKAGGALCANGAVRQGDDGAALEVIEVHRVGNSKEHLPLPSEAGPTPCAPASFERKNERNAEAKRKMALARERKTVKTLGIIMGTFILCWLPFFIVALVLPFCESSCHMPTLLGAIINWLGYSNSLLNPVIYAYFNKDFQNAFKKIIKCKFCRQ

[1] = molecular target: T2, neuronal 5-HT2A receptor (5-HT2AR) (Mus musculus, UniProt P35363); assay: Drug-induced Head Twitch Response (HTR) in mice; format: in vivo, C57BL/6-Elite mice; conditions: 1 mg/kg i.p., 15-to-30-minute window post-drug, relative to vehicle-treated control mice
T2 construct: HTR was measured in mice treated with a control and test compounds; tissue Charles River; host or cells: live C57BL/6-Elite mice (neuronal receptor)

[2] = Mouse pharmacokinetic (PK) study, parent compound and psilocin metabolite in plasma; format: in vivo, C57Bl/6 mice; conditions: mouse; for Plasma concentration of psilocin: individual animals
Text: Briefly, the procedure was as follows. […] 19, 2022.

GABAA = GABAA (Homo sapiens, UniProt P14867+P18507+P47870); format: cell-based; conditions: ion channel
GABAA, sequence (P14867 28-456): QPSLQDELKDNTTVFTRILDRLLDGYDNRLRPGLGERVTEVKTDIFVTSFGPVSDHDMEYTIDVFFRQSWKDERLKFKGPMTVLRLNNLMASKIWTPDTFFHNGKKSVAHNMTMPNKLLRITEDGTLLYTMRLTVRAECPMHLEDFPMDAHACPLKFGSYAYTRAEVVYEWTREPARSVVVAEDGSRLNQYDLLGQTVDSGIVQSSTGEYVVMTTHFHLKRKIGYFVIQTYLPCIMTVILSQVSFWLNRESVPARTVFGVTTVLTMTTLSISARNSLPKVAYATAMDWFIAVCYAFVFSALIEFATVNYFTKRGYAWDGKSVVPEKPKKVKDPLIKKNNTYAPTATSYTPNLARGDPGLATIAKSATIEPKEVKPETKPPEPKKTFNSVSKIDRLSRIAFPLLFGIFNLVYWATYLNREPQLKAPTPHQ
GABAA, sequence (P47870 26-512): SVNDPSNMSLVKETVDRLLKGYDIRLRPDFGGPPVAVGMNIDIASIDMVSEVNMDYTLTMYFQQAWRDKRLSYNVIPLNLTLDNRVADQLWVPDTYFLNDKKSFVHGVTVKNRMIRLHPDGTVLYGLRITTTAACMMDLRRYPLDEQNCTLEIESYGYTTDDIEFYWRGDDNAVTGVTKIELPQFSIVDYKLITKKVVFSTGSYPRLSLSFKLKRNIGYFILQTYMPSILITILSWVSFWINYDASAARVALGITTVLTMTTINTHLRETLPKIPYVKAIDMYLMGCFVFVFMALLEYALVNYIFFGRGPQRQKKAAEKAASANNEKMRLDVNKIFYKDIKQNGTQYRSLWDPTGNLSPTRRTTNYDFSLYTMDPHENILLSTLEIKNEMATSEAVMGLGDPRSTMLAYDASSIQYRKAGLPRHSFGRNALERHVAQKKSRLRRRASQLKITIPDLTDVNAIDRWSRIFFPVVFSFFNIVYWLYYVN
GABAA, sequence (P18507 40-475): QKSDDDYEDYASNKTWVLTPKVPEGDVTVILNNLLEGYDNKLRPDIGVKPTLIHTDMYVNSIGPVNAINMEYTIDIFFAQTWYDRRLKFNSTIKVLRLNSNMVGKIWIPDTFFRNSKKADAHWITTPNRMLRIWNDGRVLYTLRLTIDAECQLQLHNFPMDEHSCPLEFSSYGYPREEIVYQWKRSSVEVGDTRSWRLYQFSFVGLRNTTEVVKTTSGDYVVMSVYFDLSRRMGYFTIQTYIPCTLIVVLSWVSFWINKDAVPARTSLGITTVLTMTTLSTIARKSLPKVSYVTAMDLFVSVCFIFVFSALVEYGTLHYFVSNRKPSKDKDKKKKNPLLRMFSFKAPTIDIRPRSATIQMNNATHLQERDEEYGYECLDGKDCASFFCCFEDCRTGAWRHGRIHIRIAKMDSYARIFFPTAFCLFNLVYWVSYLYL

T2 sequence (P35363 whole entry): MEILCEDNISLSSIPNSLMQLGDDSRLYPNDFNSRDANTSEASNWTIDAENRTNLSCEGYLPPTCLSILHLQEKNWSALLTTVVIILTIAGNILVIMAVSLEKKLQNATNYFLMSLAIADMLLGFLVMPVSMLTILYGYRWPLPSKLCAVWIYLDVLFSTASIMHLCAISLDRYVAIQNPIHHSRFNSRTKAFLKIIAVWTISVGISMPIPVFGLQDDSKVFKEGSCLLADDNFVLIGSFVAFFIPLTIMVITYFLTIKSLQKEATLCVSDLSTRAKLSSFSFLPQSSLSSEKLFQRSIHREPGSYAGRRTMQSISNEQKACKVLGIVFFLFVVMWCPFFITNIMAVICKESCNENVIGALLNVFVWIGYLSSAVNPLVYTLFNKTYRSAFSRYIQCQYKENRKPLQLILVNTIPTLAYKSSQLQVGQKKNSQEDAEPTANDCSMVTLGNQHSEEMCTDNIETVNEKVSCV

| Structure (SMILES) | 5-HT1A receptor modulation (reduction of cAMP levels) (5-HT1A receptor) | Incidences of Head Twitch Response (HTR) [1] | further results |
| --- | --- | --- | --- |
| COC(=O)c1cccc(C(=O)Oc2cccc3[nH]cc(CCN(C)C)c23)c1 [C(XLIII)] | receptor modulation at higher ligand concentrations |  |  |
| CN(C)CCc1c[nH]c2cccc(OC(=O)c3c(F)c(F)c(F)c(F)c3F)c12 [C(VI)] | no receptor modulation at higher ligand concentrations | Elevated incidences of HTR | Detectability of administered compound in plasma, any animals at any dose ([2]; i.v. and oral doses): not detectable in any animals at any dose; Plasma concentration of psilocin ([2]; prodrug 1 mg/kg i.v., 8 h): BLQ (BLQ denotes below the lower limit of quantitation (0.2 ng/ml).); Plasma concentration of psilocin ([2]; prodrug 1 mg/kg oral, 8 h): BLQ (BLQ denotes below the lower limit of quantitation (0.2 ng/ml).); Plasma concentration of psilocin ([2]; prodrug 1 mg/kg oral, 24 h): BLQ (BLQ denotes below the lower limit of quantitation (0.2 ng/ml).); also recorded: No Peak; Plasma concentration of psilocin ([2]; prodrug 3 mg/kg oral, 24 h): BLQ (BLQ denotes below the lower limit of quantitation (0.2 ng/ml).); also recorded: No Peak; Plasma concentration of psilocin ([2]; prodrug 10 mg/kg oral, 24 h): BLQ (BLQ denotes below the lower limit of quantitation (0.2 ng/ml).); IC50 (GABAA; blocker (BL)): > 100 µM; EC50 (GABAA; opener (OP)): > 100 µM |
| NCCc1c[nH]c2ccc(O)cc12 [serotonin, reference compound] | reduction in cAMP levels |  |  |
| COCCOCCOCC(=O)Oc1cccc2[nH]cc(CCN(C)C)c12 [C(III)] | significant receptor modulation | Elevated incidences of HTR |  |
| CN(C)CCc1c[nH]c2cccc(OC(=O)c3cccc(C(=O)Oc4cccc5[nH]cc(CCN(C)C)c45)c3)c12 [C(VII)] | no significant receptor modulation | Elevated incidences of HTR |  |
